Measurements as given in patent US20260365670A1, “EGFR INHIBITORS AND USES THEREOF” (DIZAL (JIANGSU) PHARMACEUTICAL CO., LTD., priority 2022, published 2026).
pIC50: −log10 of the molar value. Where two headings read alike, the source gives them in different places.

Key:
EGFR Exon19Del = target: T1, EGFR Exon19Del (Homo sapiens, UniProt P00533, DEL746-750); assay: Inhibition of EGFR Exon19Del biochemical enzymatic activity (HTRF); details: read-out: IC50 @Del19
T1 construct: purchased Carna Bio
T1 sequence (P00533 with tags, fused parts or gaps DEL746-750 limits assumed): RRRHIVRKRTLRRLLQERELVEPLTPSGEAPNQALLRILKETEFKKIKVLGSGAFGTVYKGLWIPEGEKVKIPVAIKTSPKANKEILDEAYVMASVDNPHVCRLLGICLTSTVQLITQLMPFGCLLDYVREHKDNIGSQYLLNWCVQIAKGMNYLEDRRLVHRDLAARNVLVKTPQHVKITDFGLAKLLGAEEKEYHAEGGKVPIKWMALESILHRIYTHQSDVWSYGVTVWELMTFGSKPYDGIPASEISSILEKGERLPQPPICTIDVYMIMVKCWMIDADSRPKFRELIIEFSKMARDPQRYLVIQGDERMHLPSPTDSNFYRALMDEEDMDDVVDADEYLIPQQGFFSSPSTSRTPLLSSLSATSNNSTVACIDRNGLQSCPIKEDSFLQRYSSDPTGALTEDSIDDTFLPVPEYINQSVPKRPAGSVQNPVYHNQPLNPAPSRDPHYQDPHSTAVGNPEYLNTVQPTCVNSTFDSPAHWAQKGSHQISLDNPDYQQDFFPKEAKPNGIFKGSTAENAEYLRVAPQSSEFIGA
Method in brief: (§1)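 Following 1 h at room temperature with titrated compound, 1 mM ATP and 1 μM biotin-TK peptide (Mg2+/Mn2+, CHAPS, DTT, 0.5% DMSO buffer), EDTA-containing detection reagent terminated each enzyme reaction. Time-resolved fluorescence (ex 320, em 665/615 nm) ratio tracked activity. IC50 values came from four-parameter fits.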

EGFR L858R/T790M = target: T2, EGFR L858R/T790M (Homo sapiens, UniProt P00533, L858R/T790M); assay: Inhibition of EGFR L858R/T790M biochemical enzymatic activity (HTRF); details: 1 mM ATP; for pIC50: EGFR L858R/T790M, 1 h at room temperature, read-out: IC50 @L858R-T790M; for IC50: EGFR L858R-T790M, 1 h, room temperature, read-out: IC50 (nM) @L858R-T790M
T2 construct: purchased Carna Bio
T2 sequence (P00533 25-1210 T790M/L858R): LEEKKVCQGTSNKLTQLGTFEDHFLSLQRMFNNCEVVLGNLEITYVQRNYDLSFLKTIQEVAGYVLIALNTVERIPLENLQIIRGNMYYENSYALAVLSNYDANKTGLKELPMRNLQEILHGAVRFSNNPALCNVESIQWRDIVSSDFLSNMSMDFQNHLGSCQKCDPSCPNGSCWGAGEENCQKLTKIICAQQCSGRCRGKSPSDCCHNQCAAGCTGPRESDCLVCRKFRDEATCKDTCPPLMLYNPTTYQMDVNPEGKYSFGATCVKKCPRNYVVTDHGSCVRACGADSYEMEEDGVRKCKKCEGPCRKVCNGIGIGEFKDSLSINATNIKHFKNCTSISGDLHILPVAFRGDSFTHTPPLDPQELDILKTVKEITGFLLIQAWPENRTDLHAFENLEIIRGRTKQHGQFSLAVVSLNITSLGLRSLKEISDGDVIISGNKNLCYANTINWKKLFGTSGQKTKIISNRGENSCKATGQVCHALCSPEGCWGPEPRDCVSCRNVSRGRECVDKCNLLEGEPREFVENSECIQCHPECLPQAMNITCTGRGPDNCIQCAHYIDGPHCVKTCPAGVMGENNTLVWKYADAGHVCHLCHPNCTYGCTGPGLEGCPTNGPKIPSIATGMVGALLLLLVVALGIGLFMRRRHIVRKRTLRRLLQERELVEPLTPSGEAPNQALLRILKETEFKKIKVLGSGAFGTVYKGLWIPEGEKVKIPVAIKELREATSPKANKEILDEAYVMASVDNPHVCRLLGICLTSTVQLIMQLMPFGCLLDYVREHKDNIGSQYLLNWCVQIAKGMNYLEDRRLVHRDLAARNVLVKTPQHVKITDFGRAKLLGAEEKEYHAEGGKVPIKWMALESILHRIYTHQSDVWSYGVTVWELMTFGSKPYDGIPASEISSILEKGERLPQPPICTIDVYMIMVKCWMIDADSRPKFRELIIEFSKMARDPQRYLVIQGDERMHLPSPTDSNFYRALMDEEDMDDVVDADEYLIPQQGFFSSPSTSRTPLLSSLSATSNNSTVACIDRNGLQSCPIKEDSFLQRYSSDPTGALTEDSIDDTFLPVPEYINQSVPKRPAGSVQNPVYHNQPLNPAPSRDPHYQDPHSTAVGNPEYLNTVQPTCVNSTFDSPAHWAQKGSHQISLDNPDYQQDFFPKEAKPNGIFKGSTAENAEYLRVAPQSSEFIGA
Method in brief: as §1

PC-9 = assay: Cell proliferation assay, PC-9 cells (CellTiter-Glo, 72 hours); assay type: cell-based; details: PC9 cells, read-out: GI50 PC9
Method in brief: (§2)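 Luminescent viable-cell counts were taken on a day 0 plate at dosing and again at endpoint. Proliferation was calculated as (sample − G0)/(DMSO − G0). Seeding was 5000 Ba/F3 or 500 PC-9 cells per well in RPMI1640, followed by overnight attachment and serial compound dilutions. The GI50 was fitted.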

EGFR Exon19Del/T790M = target: T3, EGFR Exon19Del/T790M (Homo sapiens, UniProt P00533, DEL746-750/T790M); assay: Inhibition of EGFR Exon19Del/T790M biochemical enzymatic activity (HTRF); details: 1 mM ATP; for pIC50: EGFR Exon19Del/T790M, 1 h at room temperature, read-out: IC50 @Del19-T790M; for IC50: EGFR Del19-T790M, 1 h, room temperature, read-out: IC50 (nM) @Del19-T790M
T3 construct: purchased Carna Bio
T3 sequence (P00533 with tags, fused parts or gaps DEL746-750/T790M limits assumed): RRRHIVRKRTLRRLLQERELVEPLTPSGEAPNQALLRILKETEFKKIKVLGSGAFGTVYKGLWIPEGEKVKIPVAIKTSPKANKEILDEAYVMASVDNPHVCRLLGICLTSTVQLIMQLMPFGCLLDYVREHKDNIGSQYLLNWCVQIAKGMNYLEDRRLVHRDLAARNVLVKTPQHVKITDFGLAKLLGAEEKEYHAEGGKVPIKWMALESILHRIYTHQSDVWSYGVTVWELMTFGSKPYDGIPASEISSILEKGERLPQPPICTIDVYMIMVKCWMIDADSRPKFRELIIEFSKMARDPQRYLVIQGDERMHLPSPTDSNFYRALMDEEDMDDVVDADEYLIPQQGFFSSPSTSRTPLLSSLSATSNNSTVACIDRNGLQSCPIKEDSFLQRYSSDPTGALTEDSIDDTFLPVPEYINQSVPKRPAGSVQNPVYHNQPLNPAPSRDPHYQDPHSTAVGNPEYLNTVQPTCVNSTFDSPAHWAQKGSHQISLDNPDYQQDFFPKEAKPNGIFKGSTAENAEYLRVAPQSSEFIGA
Method in brief: as §1

[1] = tested on: Ba/F3 cells expressing EGFR mutations; assay: Cell proliferation assay, Ba/F3 cells expressing EGFR mutations (CellTiter-Glo, 72 hours); assay type: cell-based
Method in brief: as §2

[2] = target: T4, EGFR[T790M/C797S/d746-750] (Homo sapiens, UniProt P00533, C797S/DEL746-750/T790M); assay: Inhibition of EGFR[T790M/C797S/d746-750] biochemical enzymatic activity (HTRF); details: for pIC50: EGFR[T790M/C797S/d746-750], 1 mM ATP, 1 h at room temperature, read-out: IC50 @T790M - C797S - Del19; for IC50: EGFR T790M-C797S-Del19, 1 mM ATP, 1 h, room temperature, read-out: IC50 (nM) @T790M - C797S - Del19
T4 construct: purchased Carna Bio
T4 sequence (P00533 with tags, fused parts or gaps DEL746-750/T790M/C797S limits assumed): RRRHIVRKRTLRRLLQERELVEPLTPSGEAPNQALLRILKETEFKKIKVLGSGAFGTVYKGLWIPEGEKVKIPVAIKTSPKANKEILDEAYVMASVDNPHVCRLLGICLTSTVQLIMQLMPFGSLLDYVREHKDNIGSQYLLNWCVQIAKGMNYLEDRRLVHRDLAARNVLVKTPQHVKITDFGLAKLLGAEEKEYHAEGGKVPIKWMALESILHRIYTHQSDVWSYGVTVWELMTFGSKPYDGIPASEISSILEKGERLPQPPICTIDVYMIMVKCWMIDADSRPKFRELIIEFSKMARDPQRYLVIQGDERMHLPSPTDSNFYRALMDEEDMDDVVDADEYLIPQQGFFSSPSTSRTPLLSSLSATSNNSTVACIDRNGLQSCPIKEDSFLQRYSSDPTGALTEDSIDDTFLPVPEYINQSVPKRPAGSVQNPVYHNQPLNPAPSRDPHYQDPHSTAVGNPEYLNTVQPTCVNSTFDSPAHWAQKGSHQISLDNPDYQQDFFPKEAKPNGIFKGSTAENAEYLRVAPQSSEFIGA
Method in brief: as §1

EGFR (C797S L858R) = target: T5, EGFR (C797S L858R) (Homo sapiens, UniProt P00533, C797S/L858R); assay: Inhibition of EGFR (C797S L858R) biochemical enzymatic activity (HTRF); details: 1 mM ATP; for pIC50: EGFR (C797S L858R), 1 h at room temperature, read-out: IC50 @L858-C797S; for IC50: EGFR L858-C797S, 1 h, room temperature, read-out: IC50 (nM) @L858-C797S
T5 construct: purchased signalchem
Method in brief: as §1

EGFR (d746-750 C797S) = target: T6, EGFR (d746-750 C797S) (Homo sapiens, UniProt P00533, C797S/DEL746-750); assay: Inhibition of EGFR (d746-750 C797S) biochemical enzymatic activity (HTRF); details: 1 mM ATP; for pIC50: EGFR (d746-750 C797S), 1 h at room temperature, read-out: IC50 @Del19-C797S; for IC50: EGFR Del19-C797S, 1 h, room temperature, read-out: IC50 (nM) @Del19-C797S
T6 construct: purchased signalchem
T6 sequence (P00533 with tags, fused parts or gaps DEL746-750/C797S limits assumed): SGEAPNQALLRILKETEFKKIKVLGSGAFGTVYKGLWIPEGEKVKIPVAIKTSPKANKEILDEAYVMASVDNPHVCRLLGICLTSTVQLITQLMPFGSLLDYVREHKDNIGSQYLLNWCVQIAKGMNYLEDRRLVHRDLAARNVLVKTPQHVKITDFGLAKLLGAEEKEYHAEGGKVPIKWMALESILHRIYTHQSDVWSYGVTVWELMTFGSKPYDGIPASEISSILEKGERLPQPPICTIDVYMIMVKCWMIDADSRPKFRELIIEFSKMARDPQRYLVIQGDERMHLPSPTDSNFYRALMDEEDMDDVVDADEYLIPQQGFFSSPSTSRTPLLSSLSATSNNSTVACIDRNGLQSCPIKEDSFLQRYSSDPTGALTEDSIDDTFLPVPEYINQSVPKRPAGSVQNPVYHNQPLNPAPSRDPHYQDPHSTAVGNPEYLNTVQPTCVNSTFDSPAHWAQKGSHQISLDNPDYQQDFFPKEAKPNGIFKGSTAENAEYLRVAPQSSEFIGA
Method in brief: as §1

EGFR wild type = target: T7, EGFR wild type (Homo sapiens, UniProt P00533); assay: Inhibition of EGFR wild type biochemical enzymatic activity (HTRF); details: 1 mM ATP; for pIC50: EGFR wild type, 1 h at room temperature, read-out: IC50 @WT; for IC50: EGFR WT, 1 h, room temperature, read-out: IC50 (nM) @WT
T7 construct: purchased Carna Bio
Method in brief: as §1

A-431 = assay: Cell proliferation assay, A-431 cells (GI50, Table 6); assay type: cell-based
EGFR L858R = target: T8, EGFR L858R (Homo sapiens, UniProt P00533, L858R); assay: Inhibition of EGFR L858R biochemical enzymatic activity (HTRF); details: 1 mM ATP; for pIC50: 1 h at room temperature, read-out: IC50 @L858R; for IC50: 1 h, room temperature, read-out: IC50 (nM) @L858R
T8 construct: purchased Carna Bio
Method in brief: as §1

EGFR[T790M/C797S/L858R] = target: T9, EGFR[T790M/C797S/L858R] (Homo sapiens, UniProt P00533, C797S/L858R/T790M); assay: Inhibition of EGFR[T790M/C797S/L858R] biochemical enzymatic activity (HTRF); details: 1 mM ATP; for pIC50: EGFR[T790M/C797S/L858R], 1 h at room temperature, read-out: IC50 @T790M- C797S - L858R; for IC50: EGFR T790M-C797S-L858R, 1 h, room temperature, read-out: IC50 (nM) @T790M- C797S - L858R
T9 construct: purchased Carna Bio
T9 sequence (P00533 25-1210 T790M/C797S/L858R): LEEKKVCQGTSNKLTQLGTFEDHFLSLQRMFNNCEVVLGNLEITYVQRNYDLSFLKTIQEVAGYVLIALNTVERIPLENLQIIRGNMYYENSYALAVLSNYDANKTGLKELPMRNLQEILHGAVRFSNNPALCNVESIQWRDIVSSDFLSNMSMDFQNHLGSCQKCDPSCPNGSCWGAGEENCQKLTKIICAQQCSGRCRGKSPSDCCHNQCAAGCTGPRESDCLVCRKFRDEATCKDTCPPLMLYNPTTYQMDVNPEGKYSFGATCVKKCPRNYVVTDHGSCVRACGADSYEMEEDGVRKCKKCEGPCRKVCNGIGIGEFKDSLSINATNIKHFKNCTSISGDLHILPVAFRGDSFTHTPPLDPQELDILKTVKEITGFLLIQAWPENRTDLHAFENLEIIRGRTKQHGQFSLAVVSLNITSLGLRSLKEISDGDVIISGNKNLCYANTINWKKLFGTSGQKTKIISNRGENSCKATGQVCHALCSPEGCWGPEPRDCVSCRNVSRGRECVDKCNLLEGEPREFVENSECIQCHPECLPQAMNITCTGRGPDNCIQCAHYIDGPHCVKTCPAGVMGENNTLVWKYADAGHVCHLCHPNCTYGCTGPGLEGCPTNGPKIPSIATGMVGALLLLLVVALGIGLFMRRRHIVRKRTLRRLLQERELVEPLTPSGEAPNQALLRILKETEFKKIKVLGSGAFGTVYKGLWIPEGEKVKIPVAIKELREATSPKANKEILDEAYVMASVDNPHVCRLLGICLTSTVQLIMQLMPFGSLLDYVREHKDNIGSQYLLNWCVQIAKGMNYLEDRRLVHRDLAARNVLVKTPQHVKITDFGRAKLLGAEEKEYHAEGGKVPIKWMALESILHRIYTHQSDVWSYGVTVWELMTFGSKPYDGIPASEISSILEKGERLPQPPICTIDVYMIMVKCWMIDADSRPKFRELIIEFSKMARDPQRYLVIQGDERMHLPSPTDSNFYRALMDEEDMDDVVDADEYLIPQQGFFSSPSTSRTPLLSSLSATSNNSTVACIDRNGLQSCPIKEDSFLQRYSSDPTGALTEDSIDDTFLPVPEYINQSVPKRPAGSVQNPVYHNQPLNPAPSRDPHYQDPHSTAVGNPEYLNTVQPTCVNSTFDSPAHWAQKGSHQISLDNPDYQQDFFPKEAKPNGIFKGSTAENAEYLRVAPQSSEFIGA
Method in brief: as §1

[3] = EGFR Exon19Del, 1 mM ATP, 1 h at room temperature
[4] = BaF3 cells, EGFR DEL19 - C797S, read-out: GI50 DEL19 - C797S/BaF3
[5] = BaF3 cells, EGFR DEL19 - T790-C797S, read-out: GI50 DEL19 - T790-C797S/BaF3
[6] = BaF3 cells, EGFR L858R - C797S, read-out: GI50 L858R - C797S/BaF3
[7] = BaF3 cells, EGFR L858R - T790-C797S, read-out: GI50 L858R - T790-C797S/BaF3
[8] = BaF3 cells, EGFR L858R - T790M, read-out: GI50 L858R - T790M/BaF3
[9] = BaF3 cells, EGFR L858R, read-out: GI50 L858R/BaF3
[10] = EGFR DEL19 - T790M, read-out: GI50 DEL19 - T790M
[11] = Homo sapiens, A-431, A-431 cells
[12] = EGFR Del19, 1 mM ATP, 1 h, room temperature
[13] = Mus musculus, BaF3, 72 h, BaF3 cells, EGFR DEL19 - C797S, read-out: GI50 DEL19 - C797S/BaF3
[14] = Mus musculus, BaF3, 72 h, BaF3 cells, EGFR DEL19 - T790-C797S, read-out: GI50 DEL19 - T790-C797S/BaF3
[15] = Mus musculus, BaF3, 72 h, BaF3 cells, EGFR L858R - C797S, read-out: GI50 L858R - C797S/BaF3
[16] = Mus musculus, BaF3, 72 h, BaF3 cells, EGFR L858R - T790-C797S, read-out: GI50 L858R - T790-C797S/BaF3
[17] = Mus musculus, BaF3, 72 h, BaF3 cells, EGFR L858R - T790M, read-out: GI50 L858R - T790M/BaF3
[18] = Mus musculus, BaF3, 72 h, BaF3 cells, EGFR L858R, read-out: GI50 L858R/BaF3
[19] = Mus musculus, BaF3, 72 h, EGFR DEL19 - T790M, read-out: GI50 DEL19 - T790M

| SMILES | pIC50 (EGFR Exon19Del; [3]) | pIC50 (EGFR L858R/T790M) | GI50 (PC-9) [nM] | pIC50 (EGFR Exon19Del/T790M) | GI50 [1, 4] [nM] | GI50 [1, 5] [nM] | GI50 [1, 6] [nM] | GI50 [1, 7] [nM] | GI50 [1, 8] [nM] | GI50 [1, 9] [nM] | GI50 [1, 10] [nM] | pIC50 [2] | pIC50 (EGFR (C797S L858R)) | pIC50 (EGFR (d746-750 C797S)) | pIC50 (EGFR wild type) | pIC50 (EGFR L858R) | pIC50 (EGFR[T790M/C797S/L858R]) | GI50 (A-431; [11]) [nM] | pIC50 (EGFR Exon19Del; [12]) | IC50 (EGFR L858R/T790M) [nM] | other results |
| --- | --- | --- | --- | --- | --- | --- | --- | --- | --- | --- | --- | --- | --- | --- | --- | --- | --- | --- | --- | --- | --- |
| Cc1cc2cc(n1)-c1cnn(C)c1OCCN1CC3CCC(C3)(C1)n1c(nc3ccc(N4CC(N5CCOCC5)C4)cc31)NC2=O (single isomer, unassigned) [Example B48B] | 7.89 | 8.17 | 12 | 8.16 | 2 | 2 | 6 | 2 | 2 | 13 | 2 | 8.47 | 7.36 | 8.35 | 5.53 | 6.85 | 8.52 | – | – | – | GI50 (A-431; A-431 cells): 1370 nM |
| Cc1cc2cc(n1)-c1cnn(C)c1OCCN1CC3CCC(C3)(C1)n1c(nc3ccc(N4CCC5(CN(C)C5)C4)cc31)NC2=O (single isomer, unassigned) [Example B50B] | 8.29 | 8.52 | 8 | 8.44 | 2 | 2 | 4 | 2 | 2 | 7 | 2 | 8.62 | 8.15 | 8.68 | 6.38 | 7.59 | 8.82 | 1570 | – | – | – |
| Cc1cc2cc(n1)-c1cnn(C)c1OCCN1CC3CCC(C3)(C1)n1c(nc3ccc(N4CC[C@H](N(C)C)C4)cc31)NC2=O (single isomer, unassigned) [Example B41B] | 8.12 | 8.38 | 8 | 8.31 | 2 | 2 | 7 | 2 | 2 | 12 | 2 | 8.48 | 8.06 | 8.52 | 6.24 | 7.47 | 8.66 | 1790 | – | – | – |
| CN(C)CCN(C)c1ccc2nc3n(c2c1)C12CCC(CC1)CN(CCOc1c(cnn1C)-c1cc(cn(C)c1=O)C(=O)N3)C2 [Example A124] | – | – | – | – | – | – | – | – | – | – | – | – | – | – | – | – | – | 3800 | 7.82 | 334 | GI50 (PC-9; Homo sapiens, PC-9, 72 h): 27 nM; IC50 (EGFR Exon19Del/T790M): 9.8 nM; GI50 [1, 13]: 7.2 nM; GI50 [1, 14]: 38 nM; GI50 [1, 15]: 32 nM; GI50 [1, 16]: 11 nM; GI50 [1, 17]: 47 nM; GI50 [1, 18]: 5.2 nM; GI50 [1, 19]: 26 nM; IC50 [2]: 7.7 nM; IC50 (EGFR (C797S L858R)): 76 nM; IC50 (EGFR (d746-750 C797S)): 11 nM; IC50 (EGFR wild type): 2790 nM; IC50 (EGFR L858R): 139 nM; IC50 (EGFR[T790M/C797S/L858R]): 72 nM |
| CN(C)C1CCN(c2ccc3nc4n(c3c2)C23CCC(CC2)CN(CCOc2c(cnn2C)-c2cc(cn(C)c2=O)C(=O)N4)C3)CC1 [Example A119, 5-[4-(dimethylamino)piperidin-1-yl]-15,21-dimethyl-23-oxa-2,9,11,15,20,21,26-heptaazaheptacyclo[26.2.2.1^{1,26}.1^{13,17}.0^{2,10}.0^{3,8}.0^{18,22}]tetratriaconta-3,5,7,9,13,17(34),18(22),19-octaene-12,16-dione] | – | – | – | – | – | – | – | – | – | – | – | – | – | – | – | – | – | 1070 | 8.12 | 32 | GI50 (PC-9; Homo sapiens, PC-9, 72 h): 11 nM; IC50 (EGFR Exon19Del/T790M): 6.6 nM; GI50 [1, 13]: 1.5 nM; GI50 [1, 14]: 11 nM; GI50 [1, 15]: 11 nM; GI50 [1, 16]: 6.6 nM; GI50 [1, 17]: 15 nM; GI50 [1, 18]: 2.1 nM; GI50 [1, 19]: 7.3 nM; IC50 [2]: 3 nM; IC50 (EGFR (C797S L858R)): 19 nM; IC50 (EGFR (d746-750 C797S)): 4.7 nM; IC50 (EGFR wild type): 1060 nM; IC50 (EGFR L858R): 38 nM; IC50 (EGFR[T790M/C797S/L858R]): 9 nM |
